# Test results reported in patent publication US20220315554A1, “COMPOUNDS COMPRISING A […] LIGAND AND USE THEREOF” (priority 2019, published 2022).
# Numbered stars: 1 amine (or outer) side, 2 acyl side, 3 side chain; on linkers, the order of the positions; unused ones are H or OH. Bridge positions count the residues as written; N and C are the ends. Square brackets hold non-standard residues; d marks the D form. Peptide text beside a SMILES is read from it. * marks the point of attachment. X1 = O=C(O)CN1CCN(CC(=O)O)CCN(CC(=O)N2CCN(Cc3cc(C[*:1])cc(C[*:2])c3)CC2)CCN(CC(=O)O)CC1; X2 = O=C(O)CN1CCN(CC(=O)O)CCN(CC(=O)NCCCOCCOCCOCCCN*)CCN(CC(=O)O)CC1; X12 = NCCNCC(CNCCN)C(=O)NCCCOCCOCCOCCCN*; X40 = NCCNCC(CNCCN)C(=O)NCCS(=O)(=O)CCN*; mXylylene = c1cc(C[*:1])cc(C[*:2])c1; 4Pal = N[C@@H](Cc1ccncc1)C(=O)O; Suc = O=C(CCC(=O)[*:2])[*:1]; 4Amb = NCc1ccc(C(=O)O)cc1; Nle = CCCC[C@H](N)C(=O)O; Hexanoyl = CCCCCC(=O)*; Sar = CNCC(=O)O
# Assays:
# [1] = target: T1, FAP-expressing human WI-38 fibroblasts (Homo sapiens, UniProt Q12884); assay: Competitive FACS binding assay; details: pIC50 Category (FACS), competition with 3 nM Cy5-labeled compound, 4° C., 1 hour
# T1 construct: FAP-expressing human WI-38 fibroblasts (ECACC) were cultured in EMEM; host or cells: WI-38 human fibroblasts
# T1 sequence (Q12884 1-760): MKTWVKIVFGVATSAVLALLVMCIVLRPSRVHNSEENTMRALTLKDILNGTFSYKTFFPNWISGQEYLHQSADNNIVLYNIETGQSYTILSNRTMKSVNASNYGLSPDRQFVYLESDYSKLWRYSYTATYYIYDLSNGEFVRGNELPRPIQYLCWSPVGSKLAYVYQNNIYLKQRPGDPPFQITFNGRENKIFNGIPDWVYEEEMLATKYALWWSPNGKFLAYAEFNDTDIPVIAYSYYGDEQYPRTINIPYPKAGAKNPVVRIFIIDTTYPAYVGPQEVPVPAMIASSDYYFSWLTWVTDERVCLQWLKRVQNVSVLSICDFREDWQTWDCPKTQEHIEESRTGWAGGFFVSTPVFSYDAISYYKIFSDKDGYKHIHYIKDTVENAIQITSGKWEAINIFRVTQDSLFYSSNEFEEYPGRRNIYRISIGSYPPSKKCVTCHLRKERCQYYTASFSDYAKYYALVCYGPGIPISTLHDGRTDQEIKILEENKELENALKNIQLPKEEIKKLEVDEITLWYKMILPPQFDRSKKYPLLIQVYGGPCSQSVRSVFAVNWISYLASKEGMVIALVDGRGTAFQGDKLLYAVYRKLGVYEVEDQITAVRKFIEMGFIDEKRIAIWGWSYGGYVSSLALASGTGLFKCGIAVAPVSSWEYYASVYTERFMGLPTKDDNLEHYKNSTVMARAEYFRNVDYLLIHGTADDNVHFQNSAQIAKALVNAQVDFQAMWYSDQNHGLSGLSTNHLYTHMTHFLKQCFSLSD
# Method: Cells were analyzed in an Attune NxT flow cytometer. […]
# [2] = target: T2, Human recombinant FAP (Homo sapiens, UniProt Q12884); assay: FRET-based FAP protease activity assay; assay type: biochemical; parameters: purchased R&D systems 3715-SE; details: pIC50 Category (Activity), FRET substrate, 37° C.
# T2 sequence (Q12884 1-760): T1 sequence (Q12884 1-760)
IC50 ([1]; WI-38 fibroblasts),IC50 ([2]; recombinant human FAP),SMILES,IC50 [1],IC50 [2]
,,"CCCCCC(=O)N[C@H]1CSCc2cc(CSCCNC(=O)CN(CCN(CCN(CC(=O)O)CC(=O)O)CC(=O)O)CC(=O)O)cc(c2)CSC[C@@H](C(=O)O)NC(=O)[C@H](Cc2ccccc2)NC(=O)[C@H](CCC(N)=O)NC(=O)[C@H]([C@@H](C)O)NC(=O)[C@@H]2CCCN2C(=O)[C@@H]2CCCN2C1=O [3BP-4309, Hex-[Cys-(tMeBn(DTPA2-AET))-Pro-Pro-Thr-Gln-Phe-Cys]-OH]",10 to 79.4 nM,10 to 79.4 nM
,,"CCCC(NC(=O)CCC(=O)NCCCOCCOCCOCCCNC(=O)CN1CCN(CC(=O)O)CCN(CC(=O)O)CCN(CC(=O)O)CC1)C(=O)N[C@H]1CSCc2cccc(c2)CSC[C@@H](C(=O)N[C@@H](CC(=O)O)C(=O)NCCCOCCOCCOCCCNC(=O)CCC(=O)N[C@@H](CCCCNC(=O)CN2CCN(CC(=O)O)CCN(CC(=O)O)CCN(CC(=O)O)CC2)C(N)=O)NC(=O)[C@H](Cc2ccccc2)NC(=O)[C@H](CCC(N)=O)NC(=O)[C@H]([C@@H](C)O)NC(=O)[C@@H]2CCCN2C(=O)[C@@H]2CCCN2C1=O (stereo partly drawn) [3BP-4393, DOTA-Ttds-Nle-[Cys(3MeBn)-Pro-Pro-Thr-Gln-Phe-Cys]-Asp-Ttds-Lys(DOTA)-NH2]",< 10 nM,< 10 nM
,,"CCCCCC(=O)N[C@H]1CSCc2cc(CSCCNC(=O)CCc3ccc(O)c(CN(CCN(CC(=O)O)Cc4cc(CCC(=O)O)ccc4O)CC(=O)O)c3)cc(c2)CSC[C@@H](C(=O)O)NC(=O)[C@H](Cc2ccccc2)NC(=O)[C@H](CCC(N)=O)NC(=O)[C@H]([C@@H](C)O)NC(=O)[C@@H]2CCCN2C(=O)[C@@H]2CCCN2C1=O [3BP-4381, Hex-[Cys-(tMeBn(HBED-AET))-Pro-Pro-Thr-Gln-Phe-Cys]-OH]",10 to 79.4 nM,10 to 79.4 nM
,,"CCCCCC(=O)N[C@H]1CSCc2cc(CSCCNC(=O)CN(CCN(CC(=O)O)CC(=O)O)CCN(CC(=O)O)CC(=O)O)cc(c2)CSC[C@@H](C(=O)O)NC(=O)[C@H](Cc2ccccc2)NC(=O)[C@H](CCC(N)=O)NC(=O)[C@H]([C@@H](C)O)NC(=O)[C@@H]2CCCN2C(=O)[C@@H]2CCCN2C1=O [3BP-4214, Hex-[Cys-(tMeBn(DTPA-AET))-Pro-Pro-Thr-Gln-Phe-Cys]-OH]",10 to 79.4 nM,10 to 79.4 nM
,,"CCCCCC(=O)N[C@H]1CSCc2cccc(c2)CSC[C@@H](C(=O)O)NC(=O)[C@H](Cc2ccccc2)NC(=O)[C@H](CCC(N)=O)NC(=O)[C@H]([C@@H](C)O)NC(=O)[C@@H]2CCCN2C(=O)[C@@H]2CCCN2C1=O [3BP-4186, Hex-[Cys-(3MeBn)-Pro-Pro-Thr-Gln-Phe-Cys]-OH]",10 to 79.4 nM,10 to 79.4 nM
100 to 794 nM,10 to 79.4 nM,"CSCC[C@H](NC(C)=O)C(=O)N[C@H]1CSCc2cccc(c2)CSC[C@@H](C(=O)N[C@@H](CC(=O)O)C(=O)N[C@@H](Cc2c[nH]cn2)C(=O)N[C@@H](Cc2ccccc2)C(N)=O)NC(=O)[C@H](Cc2ccccc2)NC(=O)[C@H](CCC(=O)O)NC(=O)[C@H]([C@@H](C)O)NC(=O)[C@@H]2CCCN2C(=O)[C@@H]2CCCN2C1=O [3BP-3199, Ac-Met-[Cys(3MeBn)-Pro-Pro-Thr-Glu-Phe-Cys]-Asp-His-Phe-NH2] (Ac-MCPPTEFCDHF-NH2; linker 2-8 via mXylylene)",,
,,"CCCC[C@H](NC(=O)CCC(=O)NCCCOCCOCCOCCCNC(=O)C(CNCCN)CNCCN)C(=O)N[C@H]1CSCc2cccc(c2)CSC[C@@H](C(=O)O)NC(=O)[C@H](Cc2ccncc2)NC(=O)[C@H](CCC(=O)O)NC(=O)[C@H]([C@@H](C)O)NC(=O)[C@@H]2CCCN2C(=O)[C@@H]2CCCN2C1=O [3BP-4223, N4Ac-Ttds-Nle-[Cys-(3MeBn)-Pro-Pro-Thr-Glu-Ppa-Cys]-OH] ({X12-Suc}-[Nle]CPPTE[4Pal]C-OH; linker 2-8 via mXylylene)",100 to 794 nM,100 to 794 nM
,,"CCCCCC(=O)N[C@@H]1CSCc2cc(CSCCNC(=O)CN3CCN(CC(=O)O)CCN(CC(=O)O)CCN(CC(=O)O)CC3)cc(c2)CSC[C@H](C(=O)O)NC(=O)[C@H](Cc2ccccc2)NC(=O)[C@H](CCC(N)=O)NC(=O)[C@H]([C@@H](C)O)NC(=O)[C@@H]2CCCN2C(=O)[C@@H]2CCCN2C1=O [3BP-4110, Hex-[D-Cys-(tMeBn(DOTA-AET))-Pro-Pro-Thr-Gln-Phe-D-Cys]-OH]",10 to 79.4 nM,10 to 79.4 nM
10 to 79.4 nM,10 to 79.4 nM,"C[C@@H](O)[C@@H]1NC(=O)[C@@H]2CCCN2C(=O)[C@@H]2CCCN2C(=O)[C@@H](NC(=O)[C@H](Cc2ccccc2)NC(=O)CCC(=O)NCCCOCCOCCOCCCNC(=O)CN2CCN(CC(=O)O)CCN(CC(=O)O)CCN(CC(=O)O)CC2)CSCc2cccc(c2)CSC[C@@H](C(=O)N[C@@H](CC(=O)O)C(=O)N[C@@H](Cc2c[nH]cn2)C(=O)N[C@@H](Cc2ccccc2)C(=O)N[C@@H](CCCNC(=N)N)C(=O)N[C@@H](CC(=O)O)C(N)=O)NC(=O)[C@H](Cc2ccccc2)NC(=O)[C@H](CCC(=O)O)NC1=O [3BP-3171, DOTA-Ttds-Phe-[Cys(3MeBn)-Pro-Pro-Thr-Glu-Phe-Cys]-Asp-His-Phe-Arg-Asp-NH2] ({X2-Suc}-FCPPTEFCDHFRD-NH2; linker 2-8 via mXylylene)",,
,,"CCCC[C@H](NC(=O)CCC(=O)NCCS(=O)(=O)CCNC(=O)C(CNCCN)CNCCN)C(=O)N[C@H]1CSCc2cccc(c2)CSC[C@@H](C(=O)O)NC(=O)[C@H](Cc2ccccc2)NC(=O)[C@H](CCC(=O)O)NC(=O)[C@H]([C@@H](C)O)NC(=O)[C@@H]2CCCN2C(=O)[C@@H]2CCCN2C1=O [3BP-4243, N4Ac-Efa-Nle-[Cys-(3MeBn)-Pro-Pro-Thr-Glu-Phe-Cys]-OH] ({X40-Suc}-[Nle]CPPTEFC-OH; linker 2-8 via mXylylene)",10 to 79.4 nM,10 to 79.4 nM
< 10 nM,< 10 nM,"CSCC[C@H](NC(C)=O)C(=O)N[C@H]1CSCc2cccc(c2)CSC[C@@H](C(=O)N[C@@H](CC(=O)O)C(=O)N[C@@H](Cc2c[nH]cn2)C(=O)N[C@@H](Cc2ccccc2)C(=O)N[C@@H](CCCNC(=N)N)C(=O)N[C@@H](CC(=O)O)C(N)=O)NC(=O)[C@H](Cc2ccccc2)NC(=O)[C@H](CCC(=O)O)NC(=O)[C@H]([C@@H](C)O)NC(=O)[C@@H]2CCCN2C(=O)CNC1=O [3BP-3214, Ac-Met-[Cys(3MeBn)-Gly-Pro-Thr-Glu-Phe-Cys]-Asp-His-Phe-Arg-Asp-NH2] (Ac-MCGPTEFCDHFRD-NH2; linker 2-8 via mXylylene)",,
,,"CCCCCC(=O)N[C@H]1CSCc2cc(cc(CN3CCN(C(=O)CN4CCN(CC(=O)O)CCN(CC(=O)O)CCN(CC(=O)O)CC4)CC3)c2)CSC[C@@H](C(=O)O)NC(=O)[C@H](Cc2ccccc2)NC(=O)[C@H](CCC(N)=O)NC(=O)[C@H]([C@@H](C)O)NC(=O)[C@@H]2CCCN2C(=O)CN(C)C1=O [3BP-3771, Hex-[Cys(tMeBn(DOTA-PP))-Nmg-Pro-Thr-Gln-Phe-Cys]-OH] (Hexanoyl-C[Sar]PTQFC-OH; linker 1-7 via X1)",< 10 nM,< 10 nM
> 1000 nM,100 to 794 nM,"CCCCCC(=O)N[C@H]1CSCc2cccc(c2)CSC[C@@H](C(N)=O)NC(=O)[C@H](C)NC(=O)[C@H](CCC(=O)O)NC(=O)[C@H]([C@@H](C)O)NC(=O)[C@@H]2CCCN2C(=O)[C@@H]2CCCN2C1=O [3BP-3350, Hex-[Cys(3MeBn)-Pro-Pro-Thr-Glu-Ala-Cys]-NH2] (Hexanoyl-CPPTEAC-NH2; linker 1-7 via mXylylene)",,
10 to 79.4 nM,< 10 nM,"CCCCCC(=O)N[C@H]1CSCc2cccc(c2)CSC[C@@H](C(=O)NCc2ccc(C(=O)N[C@@H](CCCNC(=N)N)C(N)=O)cc2)NC(=O)[C@H](Cc2ccccc2)NC(=O)[C@H](CCC(=O)O)NC(=O)[C@H]([C@@H](C)O)NC(=O)[C@@H]2CCCN2C(=O)[C@@H]2CCCN2C1=O [3BP-3303, Hex-[Cys(3MeBn)-Pro-Pro-Thr-Glu-Phe-Cys]-Pamb-Arg-NH2] (Hexanoyl-CPPTEFC[4Amb]R-NH2; linker 1-7 via mXylylene)",,
,,"CCCCCC(=O)N[C@H]1CSCc2cc(CSCCNC(=O)CN3CCN4CCN(CC(=O)O)CCN(CC3)CC(=O)[O][Zn][O]C(=O)C4)cc(c2)CSC[C@@H](C(=O)O)NC(=O)[C@H](Cc2ccccc2)NC(=O)[C@H](CCC(N)=O)NC(=O)[C@H]([C@@H](C)O)NC(=O)[C@@H]2CCCN2C(=O)[C@@H]2CCCN2C1 [3BP-4343, Zink-Complex of Hex-[Cys(tMeBn(DOTA-AET))-Pro-Pro-Thr-Gln-Phe-Cys]-OH]",< 10 nM,< 10 nM

SMILES,IC50 ([1]; WI-38 fibroblasts),IC50 ([2]; recombinant human FAP),IC50 [1],IC50 [2]
"CCCCCC[C@H](NC(=O)CCC(=O)NCCCOCCOCCOCCCNC(=O)CN1CCN(CC(=O)O)CCN(CC(=O)O)CCN(CC(=O)O)CC1)C(=O)N[C@H]1CSCc2cccc(c2)CSC[C@@H](C(=O)NCCC(=O)O)NC(=O)[C@H](Cc2ccccc2)NC(=O)[C@H](CCC(N)=O)NC(=O)[C@H]([C@@H](C)O)NC(=O)[C@@H]2CCCN2C(=O)[C@@H]2CCCN2C1=O [3BP-3400, DOTA-Ttds-Hgl-[Cys(3MeBn)-Pro-Pro-Thr-Gln-Phe-Cys]-Bal-OH]",> 1000 nM,10 to 79.4 nM,,
